From PMC12406203 (Journal of Medicinal Chemistry, 2025)

Legend:
Experiment in all cases: KINOMEscan
Assay type in all cases: binding
[1] = molecular target: T1, TYK2(JH1domain-catalytic) (Homo sapiens, UniProt P29597)
T1 construct: TYK2(JH1domain-; purchased Eurofins DiscoverX, LLC; host or cells: E. coli BL21-derived host (T7 phage) or HEK-293
T1 sequence (P29597 897-1176 limits assumed): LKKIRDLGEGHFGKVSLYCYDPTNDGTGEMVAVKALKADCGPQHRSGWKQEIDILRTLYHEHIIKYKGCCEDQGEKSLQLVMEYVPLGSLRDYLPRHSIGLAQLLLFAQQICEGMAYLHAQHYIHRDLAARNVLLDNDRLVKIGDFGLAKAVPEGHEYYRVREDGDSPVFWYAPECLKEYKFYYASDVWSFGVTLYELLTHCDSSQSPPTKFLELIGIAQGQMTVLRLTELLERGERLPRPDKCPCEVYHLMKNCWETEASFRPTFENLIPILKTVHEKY
Experimental: (§1) The kinase inhibition profile of compounds 94 and 95 was assessed against 103 protein kinases by Eurofins DiscoverX, LLC., using the KINOMEscan assay. Kinase-tagged T7 phage strains were grown in parallel in 24-well blocks in an E. coli host derived from the BL21 strain. E. coli were grown to log-phase and infected with T7 phage from a frozen stock (multiplicity of infection = 0.4) and incubated with shaking at 32 °C until lysis (90–150 min). The lysates were centrifuged (6000g) and filtered (0.2 μm) to remove cell debris. The remaining kinases were produced in HEK-293 cells and subsequently tagged with DNA for qPCR detection. […] The liganded beads were blocked with excess biotin and washed with blocking buffer (SeaBlock (Pierce), 1% BSA, 0.05% Tween 20, 1 mM DTT) to remove unbound ligand and to reduce nonspecific phage binding. […] Test compounds were prepared as 100× stocks in 100% DMSO and directly diluted into the assay. All reactions were performed in polypropylene 384-well plates in a final volume of 0.02 mL. […] The kinase concentration in the eluates was measured by qPCR.
(§2) The compound(s) were screened at the concentration(s) requested, and results for primary screen binding interactions are reported as RA (%), where lower numbers indicate stronger hits in the matrix. RA=(testcompoundsignal−PCsignal/NCsignal−PCsignal)×100

[2] = molecular target: T2, BRAF(V600E) (Homo sapiens, UniProt P15056, V600E)
T2 construct: purchased Eurofins DiscoverX, LLC; host or cells: E. coli BL21-derived (T7 phage) or HEK-293
T2 sequence (P15056 whole entry V600E): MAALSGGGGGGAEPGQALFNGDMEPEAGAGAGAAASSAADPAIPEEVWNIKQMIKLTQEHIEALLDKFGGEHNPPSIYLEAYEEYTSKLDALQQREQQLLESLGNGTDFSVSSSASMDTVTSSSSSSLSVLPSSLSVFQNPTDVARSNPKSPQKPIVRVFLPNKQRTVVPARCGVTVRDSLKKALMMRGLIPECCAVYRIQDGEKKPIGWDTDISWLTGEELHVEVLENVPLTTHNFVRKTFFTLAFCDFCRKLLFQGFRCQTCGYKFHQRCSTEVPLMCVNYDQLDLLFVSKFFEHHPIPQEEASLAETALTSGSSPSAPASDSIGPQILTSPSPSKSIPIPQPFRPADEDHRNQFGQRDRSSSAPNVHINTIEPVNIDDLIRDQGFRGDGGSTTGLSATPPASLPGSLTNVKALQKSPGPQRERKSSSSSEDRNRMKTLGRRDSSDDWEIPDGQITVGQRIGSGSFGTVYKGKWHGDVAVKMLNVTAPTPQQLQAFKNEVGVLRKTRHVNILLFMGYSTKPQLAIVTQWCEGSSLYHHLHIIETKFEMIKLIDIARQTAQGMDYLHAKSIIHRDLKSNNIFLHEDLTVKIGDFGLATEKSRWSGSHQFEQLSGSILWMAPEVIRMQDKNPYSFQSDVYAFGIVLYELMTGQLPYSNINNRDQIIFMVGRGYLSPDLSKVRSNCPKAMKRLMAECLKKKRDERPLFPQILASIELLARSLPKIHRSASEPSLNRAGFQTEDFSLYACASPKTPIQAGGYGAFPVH
Experimental: as §1, §2

[3] = molecular target: T3, BMPR2 (Homo sapiens, UniProt Q13873)
T3 construct: purchased Eurofins DiscoverX, LLC; host or cells: E. coli BL21-derived (T7 phage) or HEK-293
T3 sequence (Q13873 27-1038): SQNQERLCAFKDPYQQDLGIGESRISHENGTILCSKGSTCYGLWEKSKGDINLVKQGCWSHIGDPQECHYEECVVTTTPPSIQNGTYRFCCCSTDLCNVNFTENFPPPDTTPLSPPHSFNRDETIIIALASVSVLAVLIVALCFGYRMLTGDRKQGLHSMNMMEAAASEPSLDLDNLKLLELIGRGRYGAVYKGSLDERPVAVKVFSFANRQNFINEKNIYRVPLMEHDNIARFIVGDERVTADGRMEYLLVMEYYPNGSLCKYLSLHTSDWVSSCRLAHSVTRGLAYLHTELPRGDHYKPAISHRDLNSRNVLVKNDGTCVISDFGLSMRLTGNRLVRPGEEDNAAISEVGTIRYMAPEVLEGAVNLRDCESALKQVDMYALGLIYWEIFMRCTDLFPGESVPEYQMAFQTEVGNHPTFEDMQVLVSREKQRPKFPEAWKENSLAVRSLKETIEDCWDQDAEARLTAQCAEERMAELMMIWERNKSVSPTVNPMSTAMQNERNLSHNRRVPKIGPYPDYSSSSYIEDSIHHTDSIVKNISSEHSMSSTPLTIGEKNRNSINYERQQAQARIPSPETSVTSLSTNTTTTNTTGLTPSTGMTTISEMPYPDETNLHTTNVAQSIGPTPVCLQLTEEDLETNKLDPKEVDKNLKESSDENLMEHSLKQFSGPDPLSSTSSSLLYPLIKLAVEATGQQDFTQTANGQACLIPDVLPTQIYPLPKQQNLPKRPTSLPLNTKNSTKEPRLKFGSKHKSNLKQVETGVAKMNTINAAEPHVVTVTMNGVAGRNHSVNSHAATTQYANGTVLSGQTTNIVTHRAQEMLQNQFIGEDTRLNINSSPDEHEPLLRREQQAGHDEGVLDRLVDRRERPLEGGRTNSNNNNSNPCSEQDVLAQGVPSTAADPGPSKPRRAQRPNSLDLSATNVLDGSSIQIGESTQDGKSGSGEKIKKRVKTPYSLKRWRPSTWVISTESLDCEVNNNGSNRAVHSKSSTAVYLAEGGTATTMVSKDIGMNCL
Experimental: as §1, §2

[4] = molecular target: T4, MKNK1 (Homo sapiens, UniProt Q9BUB5)
T4 construct: purchased Eurofins DiscoverX, LLC; host or cells: E. coli (BL21-derived, T7 phage) or HEK-293
T4 sequence (Q9BUB5 whole entry): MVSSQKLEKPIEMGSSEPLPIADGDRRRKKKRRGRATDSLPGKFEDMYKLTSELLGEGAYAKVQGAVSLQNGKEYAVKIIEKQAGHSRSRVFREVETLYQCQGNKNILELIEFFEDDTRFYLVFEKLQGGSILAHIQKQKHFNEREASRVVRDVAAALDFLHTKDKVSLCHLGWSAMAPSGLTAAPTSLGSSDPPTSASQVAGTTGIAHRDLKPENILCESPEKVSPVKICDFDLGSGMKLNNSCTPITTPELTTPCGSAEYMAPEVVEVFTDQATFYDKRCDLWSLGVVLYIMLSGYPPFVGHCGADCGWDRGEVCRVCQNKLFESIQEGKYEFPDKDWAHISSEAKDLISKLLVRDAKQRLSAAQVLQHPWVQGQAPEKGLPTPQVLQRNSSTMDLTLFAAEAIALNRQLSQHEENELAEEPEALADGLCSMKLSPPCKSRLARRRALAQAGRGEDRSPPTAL
Experimental: as §1, §2

[5] = molecular target: T5, SRC (Homo sapiens, UniProt P12931)
T5 construct: purchased Eurofins DiscoverX, LLC; host or cells: E. coli BL21-derived host (T7 phage) or HEK-293
T5 sequence (P12931 whole entry): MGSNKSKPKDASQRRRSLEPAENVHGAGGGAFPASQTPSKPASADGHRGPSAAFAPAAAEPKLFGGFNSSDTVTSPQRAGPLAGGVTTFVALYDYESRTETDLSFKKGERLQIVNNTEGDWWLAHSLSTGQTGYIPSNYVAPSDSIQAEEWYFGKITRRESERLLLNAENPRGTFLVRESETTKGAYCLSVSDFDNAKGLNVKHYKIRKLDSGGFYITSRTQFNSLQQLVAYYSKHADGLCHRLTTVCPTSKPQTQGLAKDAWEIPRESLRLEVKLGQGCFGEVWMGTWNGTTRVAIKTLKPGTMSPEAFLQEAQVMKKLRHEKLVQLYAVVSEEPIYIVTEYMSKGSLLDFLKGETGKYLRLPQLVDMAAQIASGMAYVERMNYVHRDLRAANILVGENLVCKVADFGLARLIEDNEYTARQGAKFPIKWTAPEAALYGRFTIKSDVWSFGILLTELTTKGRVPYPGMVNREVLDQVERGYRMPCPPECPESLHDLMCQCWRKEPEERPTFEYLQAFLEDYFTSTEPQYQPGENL
Experimental: as §1, §2

Row | Structure (SMILES) | RA @ 1000nM [1] [%] | RA @ 10000nM [1] [%] | RA @ 1000nM [2] [%] | RA @ 10000nM [2] [%] | RA @ 1000nM [3] [%] | RA @ 10000nM [3] [%] | RA @ 1000nM [4] [%] | RA @ 10000nM [4] [%] | RA @ 1000nM [5] [%] | RA @ 10000nM [5] [%]
1 | CC(C)Cn1ncc2cc(Cc3ccc(F)cc3F)c(C(=O)NCCN(C)C)cc21 [Compound 94, 5-(2,4-Difluorobenzyl)-N-(2-(dimethylamino)ethyl)-1-isobutyl-1H-indazole-6-carboxamide] | 78 | 79 | 100 | 100 | 86 | 95 | 100 | 100 | 100 | 94
2 | CN(C)CCNC(=O)c1cc2c(cnn2CC2CCCCC2)cc1Cc1ccc(F)cc1F [Compound 95, 1-(Cyclohexylmethyl)-5-(2,4-difluorobenzyl)-N-(2-(dimethylamino)ethyl)-1H-indazole-6-carboxamide] | 89 | 75 | 98 | 100 | 89 | 92 | 100 | 100 | 100 | 93
